Measurements: patent US20070275052A1, “Pharmaceutical compositions containing sterol inhibitors” (Glenmark Pharmaceuticals Limited, priority 2006, published 2007)

Experiment: Initial experiments: drug release of ezetimibe having particle size about 25 microns
Type: physicochemical
Conditions: ezetimibe particle size about 25 microns
Excerpt: The pharmaceutical compositions of present invention can be prepared with techniques well known in the art, preferably, direct compression, dry granulation and wet granulation.

For `O=C1[C@H](CC[C@H](O)c2ccc(F)cc2)[C@@H](c2ccc(O)cc2)N1c1ccc(F)cc1` [ezetimibe, Ezetimibe], the “release of the drug” value was 40-50%.
